The results in this text go back to patent US8916702B2 (priority 2012, dated 2014).

The test relates to HCV pseudoparticles (genotype 1a HCV E1 and E2 envelope, H77C isolate). In words: microbe, parasite or virus in culture. Format: cell-based. The settings on record: Hepatitis C virus.
Where [1] appears, read: Huh-7, read-out: Activity (EC50 class), HCV pseudoparticles (genotype 1a, H77C) in Huh7 cells, EC50 expressed as class A/B.
The mark [2] stands for this setting: Huh-7, 48 h, HCV pseudoparticle infection of Huh7 cells, luciferase 2 days after infection, average of duplicates.
[3] abbreviates: Huh-7, 48 h, read-out: Activity (EC50 class), HCV pseudoparticle infection of Huh7 cells, luciferase 2 days after infection, EC50 expressed as class A/B.
Where [4] appears, read: Huh-7, 48 h, read-out: Activity (EC50 class), HCV pseudoparticles, Huh7 cells, luciferase 2 days after infection, average of duplicates.
[5] abbreviates: Huh-7, 48 h, HCV pseudoparticles (genotype 1a, H77C) in Huh7 cells, average of duplicate, luciferase 2 days after infection.
[6] abbreviates: Huh-7, 48 h, HCV pseudoparticles, Huh7 cells, luciferase 2 days after infection, average of duplicates.

Each structure is given as a SMILES string. Like-named read-outs stand apart in the source and are kept apart here.

In general, EC50 refers to the concentration needed to bring the measured effect to its halfway point. Turning to `CC(C)(CNC(=O)c1ccc(Nc2nc(NC3(c4ccc(Cl)cc4)CC3)nc(OCC(F)(F)F)n2)cc1)NC(=O)C(=O)N1CCCCC1` [Compound 3439], the EC50 under setting [1] was 0.01 to 10 nM. `COC(=O)[C@H](CNC(=O)C(=O)Nc1ccc(OC(F)F)cc1)NC(=O)c1ccc(Nc2nc(NC3(c4ccc(Cl)cc4)CC3)nc(OCC(F)(F)F)n2)cc1` [Compound 3215]: the EC50 under setting [1] is 0.01 to 10 nM.

With `COC(=O)[C@H](CCNC(=O)C(=O)N(C)c1ccccc1)NC(=O)c1ccc(Nc2nc(NC3(c4ccc(Cl)cc4)CC3)nc(OCC(F)(F)F)n2)cc1` [Compound 1235], the concentration for a half-maximal effect (EC50) by setting is: under setting [2], 0.53 nM; under setting [3], 0.01 to 10 nM. In the case of `COC(=O)[C@H](CNC(=O)C(=O)NCCc1ccccc1F)NC(=O)c1ccc(Nc2nc(NC3(c4ccc(Cl)cc4)CC3)nc(OCC(F)(F)F)n2)cc1` [Compound 1290], under setting [3], the EC50 was 0.01 to 10 nM. For the compound `O=C(NCC[C@H](NC(=O)c1ccc(Nc2nc(NC3(c4ccc(Cl)cc4)CC3)nc(OCC(F)(F)F)n2)cc1)C(=O)O)C(=O)NC1Cc2ccccc2C1` [Compound 1335], the EC50 under setting [3] lay within 0.01 to 10 nM. With `Cc1cc(NC(=O)C(=O)NCCCNC(=O)c2ccc(Nc3nc(NC4(c5ccc(Cl)cc5)CC4)nc(OCC(F)(F)F)n3)cc2)no1` [Compound 3343], the 50% effective concentration (EC50) under setting [1] was in the range of 0.01 to 10 nM. Turning to `CS(=O)(=O)c1cccc(NC(=O)C(=O)NC[C@H](NC(=O)c2ccc(Nc3nc(NC4(c5ccc(Cl)cc5)CC4)nc(OCC(F)(F)F)n3)cc2)C(=O)O)c1` [Compound 3763], the concentration giving a half-maximal response (EC50) under setting [4] was in the range of 0.01 to 10 nM.

On to `COc1ccc(CNC(=O)C(=O)NCC[C@H](NC(=O)c2ccc(Nc3nc(NC4(c5ccc(Cl)cc5)CC4)nc(OCC(F)(F)F)n3)cc2)C(=O)O)cc1` [Compound 1186], for which, under setting [3], the EC50 was in the range of 0.01 to 10 nM.

In the case of `CC(C)(CNC(=O)C(=O)Nc1ccc2cccnc2c1)CNC(=O)c1ccc(Nc2nc(NC3(c4ccc(Cl)cc4)CC3)nc(OCC(F)(F)F)n2)cc1` [Compound 3034], the EC50 is 0.04 nM under setting [5] and 0.01 to 10 nM under setting [1]. Take `COc1ccc(CN(CC(C)(O)CNC(=O)c2ccc(Nc3nc(NC4(c5ccc(Cl)cc5)CC4)nc(OCC(F)(F)F)n3)cc2)C(=O)C(=O)Nc2ccc(C)cc2)c(OC)c1` (centres unmarked) [Compound 3833]: the 50% effective concentration (EC50) under setting [4] lay in the range of 0.01 to 10 nM. On to `COC(=O)[C@H](CCNC(=O)C(=O)Nc1ccc(F)cc1)NC(=O)c1ccc(Nc2nc(NC3(c4ccc(Cl)cc4)CC3)nc(OCC(F)(F)F)n2)cc1` [Compound 1230], for which the EC50 under setting [3] was in the range of 0.01 to 10 nM. Same read-out and setting: the value for `CN(C(=O)C(=O)NCC(C)(C)CNC(=O)c1ccc(Nc2nc(NC3(c4ccc(Cl)cc4)CC3)nc(OCC(F)(F)F)n2)cc1)c1cccc(F)c1` [Compound 1578] was 0.01 to 10 nM; that for `COC(=O)[C@H](CCNC(=O)C(=O)Nc1ccnn1C)NC(=O)c1ccc(Nc2nc(NC3(c4ccc(Cl)cc4)CC3)nc(OCC(F)(F)F)n2)cc1` [Compound 1239] was 0.01 to 10 nM. For the compound `COC(=O)[C@H](CNC(=O)C(=O)NCCc1c[nH]cn1)NC(=O)c1ccc(Nc2nc(NC3(c4ccc(Cl)cc4)CC3)nc(OCC(F)(F)F)n2)cc1` [Compound 1295], under setting [3], the 50% effective concentration (EC50) fell in the range of 10 to 1000 nM. Take `NC(=O)C(=O)NCC(CO)(CO)CNC(=O)c1ccc(Nc2nc(NC3(c4ccc(Cl)cc4)CC3)nc(OCC(F)(F)F)n2)cc1` [Compound 3838, N^1-(3-(4-((4-((1-(4-chlorophenyl)cyclopropyl)amino)-6-(2,2,2-trifluoroethoxy)-1,3,5-triazin-2-yl)amino)benzamido)-2,2-bis(hydroxymethyl)propyl)oxalamide]: the EC50 reads like this: under setting [6], 0.052 nM; under setting [4], 0.01 to 10 nM.

For the compound `COC(=O)[C@H](CCNC(=O)C(=O)Nc1cccc(-c2cccnc2)c1)NC(=O)c1ccc(Nc2nc(NC3(c4ccc(Cl)cc4)CC3)nc(OCC(F)(F)F)n2)cc1` [Compound 3604], under setting [4], the half-maximal effective concentration (EC50) is 0.01 to 10 nM. As for `O=C(NC[C@H](NC(=O)c1ccc(Nc2nc(NC3(c4ccc(Cl)cc4)CC3)nc(OCC(F)(F)F)n2)cc1)C(=O)O)C(=O)Nc1cccc(-c2ccncc2)c1` [Compound 3768], under setting [4], the EC50 lay in the range of 0.01 to 10 nM. Take `O=C(NC/C(=N/C(=O)c1ccc(Nc2nc(NC3(c4ccc(Cl)cc4)CC3)nc(OCC(F)(F)F)n2)cc1)C(=O)O)C(=O)Nc1ccc(-n2cccn2)cc1` [Compound 3173]: the EC50 under setting [1] lay in the range of 0.01 to 10 nM. With `COC(=O)[C@H](CNC(=O)C(=O)Nc1ccc(C(F)(F)F)nc1)NC(=O)c1ccc(Nc2nc(NC3(c4ccc(Cl)cc4)CC3)nc(OCC(F)(F)F)n2)cc1` [Compound 3716], the EC50 is 0.62 nM under setting [6] and 0.01 to 10 nM under setting [4].

Turning to `COC(=O)[C@H](CCNC(=O)C(=O)NCCc1ccccc1)NC(=O)c1ccc(Nc2nc(NC3(c4ccc(Cl)cc4)CC3)nc(OCC(F)(F)F)n2)cc1` [Compound 1308], under setting [3], the EC50 lay within 0.01 to 10 nM.

On to `CN(C)C(=O)C(=O)NCC(C)(C)CNC(=O)c1ccc(Nc2nc(NC3(c4ccc(Cl)cc4)CC3)nc(OCC(F)(F)F)n2)cc1` [Compound 1008, N1-(3-(4-(4-(1-(4-chlorophenyl)cyclopropylamino)-6-(2,2,2-trifluoroethoxy)-1,3,5-triazin-2-ylamino)benzamido)-2,2-dimethylpropyl)-N2,N2-dimethyloxalamide], for which the half-maximal effective concentration (EC50) under setting [3] lay within 0.01 to 10 nM. `COc1cccc(NC(=O)C(=O)NCC[C@H](NC(=O)c2ccc(Nc3nc(NC4(c5ccc(Cl)cc5)CC4)nc(OCC(F)(F)F)n3)cc2)C(=O)O)c1` [Compound 1270]: the EC50 runs as follows: under setting [2], 0.13 nM; under setting [3], 0.01 to 10 nM. Take `Cc1cc(NC(=O)C(=O)NCC(C)(C)CNC(=O)c2ccc(Nc3nc(NC4(c5ccc(Cl)cc5)CC4)nc(OCC(F)(F)F)n3)cc2)[nH]n1` [Compound 3673]: the EC50 under setting [4] fell in the range of 0.01 to 10 nM.

Take `CC(C)(C)OC(=O)N1CCCC(CNC(=O)C(=O)NC[C@H](NC(=O)c2ccc(Nc3nc(NC4(c5ccc(Cl)cc5)CC4)nc(OCC(F)(F)F)n3)cc2)C(=O)O)C1` (some centres unmarked) [Compound 1468]: the 50% effective concentration (EC50) under setting [3] lay in the range of 0.01 to 10 nM. For `CCC(CC)NC(=O)C(=O)NCC[C@H](NC(=O)c1ccc(Nc2nc(NC3(c4ccc(Cl)cc4)CC3)nc(OCC(F)(F)F)n2)cc1)C(=O)O` [Compound 1126], the EC50 under setting [3] lay in the range of 0.01 to 10 nM. With `CCC(CC)NC(=O)C(=O)NC[C@@H](NC(=O)c1ccc(Nc2nc(NC3(c4ccc(Cl)cc4)CC3)nc(OCC(F)(F)F)n2)cc1)C(=O)OC` [Compound 1063], the EC50 under setting [3] lay in the range of 0.01 to 10 nM. As for `COC(=O)[C@H](CNC(=O)C(N)=O)NC(=O)c1ccc(Nc2nc(NC3(c4ccc(Cl)cc4)CC3)nc(OCC(F)(F)F)n2)cc1` [Compound 1002, (S)-methyl 3-(2-amino-2-oxoacetamido)-2-(4-(4-(1-(4-chlorophenyl)cyclopropylamino)-6-(2,2,2-trifluoroethoxy)-1,3,5-triazin-2-ylamino)benzamido)propanoate], the concentration for a half-maximal effect (EC50) was 2.11 nM under setting [2] and 0.01 to 10 nM under setting [3]. Turning to `COC(=O)[C@H](CNC(=O)C(=O)Nc1ccc(-c2ncco2)cc1)NC(=O)c1ccc(Nc2nc(NC3(c4ccc(Cl)cc4)CC3)nc(OCC(F)(F)F)n2)cc1` [Compound 3209], the EC50 under setting [1] lay within 0.01 to 10 nM.

With `O=C(NCC[C@H](NC(=O)c1ccc(Nc2nc(NC3(c4ccc(Cl)cc4)CC3)nc(OCC(F)(F)F)n2)cc1)C(=O)O)C(=O)NCCn1cncn1` [Compound 1342], the 50% effective concentration (EC50) under setting [3] is 0.01 to 10 nM. Consider `Cc1ccc(NC(=O)C(=O)NCC(C)(C)CNC(=O)c2ccc(Nc3nc(NC4(c5ccc(Cl)cc5)CC4)nc(OCc4cccc(Cl)c4)n3)cc2)cc1` [Compound 3844], for which the EC50 under setting [4] is 0.01 to 10 nM. For the compound `CC(C)(CNC(=O)c1ccc(Nc2nc(NC3(c4ccc(Cl)cc4)CC3)nc(OCC(F)(F)F)n2)cc1)NC(=O)C(=O)NCc1ccc(F)cc1` [Compound 3419], under setting [1], the EC50 lay within 0.01 to 10 nM.

As for `CN(CCCNC(=O)c1ccc(Nc2nc(NC3(c4ccc(Cl)cc4)CC3)nc(OCC(F)(F)F)n2)cc1)C(=O)C(=O)Nc1ccc(F)cc1` [Compound 3448], the half-maximal effective concentration (EC50) runs as follows: under setting [5], 0.059 nM; under setting [1], 0.01 to 10 nM.

Take `CC(C)(CNC(=O)C(=O)Nc1cccc(F)c1)CNC(=O)c1ccc(Nc2nc(NC3(c4ccc(Cl)cc4)CC3)nc(OCC(F)(F)F)n2)cc1` [Compound 1546]: the EC50 under setting [3] lay within 0.01 to 10 nM. Regarding `NC(=O)C(=O)NCCC[C@H](NC(=O)c1ccc(Nc2nc(NC3(c4ccc(Cl)cc4)CC3)nc(OCC(F)(F)F)n2)cc1)C(=O)O` [Compound 1016, (S)-5-(2-amino-2-oxoacetamido)-2-(4-(4-(1-(4-chlorophenyl)cyclopropylamino)-6-(2,2,2-trifluoroethoxy)-1,3,5-triazin-2-ylamino)benzamido)pentanoic acid], the EC50 under setting [3] lay in the range of 0.01 to 10 nM.

Take `COc1cccc2sc(NC(=O)C(=O)NCC(C)(C)CNC(=O)c3ccc(Nc4nc(NC5(c6ccc(Cl)cc6)CC5)nc(OCC(F)(F)F)n4)cc3F)nc12` [Compound 3814]: under setting [4], the EC50 lay in the range of 0.01 to 10 nM. Regarding `O=C(NCC1CCCCC1)C(=O)NC[C@@H](NC(=O)c1ccc(Nc2nc(NC3(c4ccc(Cl)cc4)CC3)nc(OCC(F)(F)F)n2)cc1)C(=O)O` [Compound 1039], under setting [3], the EC50 was 0.01 to 10 nM. For `CCOC(=O)[C@H](CCNC(=O)C(N)=O)NC(=O)c1ccc(Nc2nc(NC3(c4ccc(Cl)cc4)CC3)nc(OCC(F)(F)F)n2)cc1` [Compound 1028, (S)-ethyl 4-(2-amino-2-oxoacetamido)-2-(4-(4-(1-(4-chlorophenyl)cyclopropylamino)-6-(2,2,2-trifluoroethoxy)-1,3,5-triazin-2-ylamino)benzamido)butanoate], the EC50 is, setting by setting: under setting [2], 0.4 nM; under setting [3], 0.01 to 10 nM. Take `COC(=O)[C@H](CCNC(=O)C(=O)Nc1ccc(Oc2ccncc2)cc1)NC(=O)c1ccc(Nc2nc(NC3(c4ccc(Cl)cc4)CC3)nc(OCC(F)(F)F)n2)cc1` [Compound 3323]: the 50% effective concentration (EC50) under setting [1] is 0.01 to 10 nM. Turning to `COC(=O)/C(CCNC(=O)C(=O)Nc1cccc(S(C)(=O)=O)c1)=N\C(=O)c1ccc(Nc2nc(NC3(c4ccc(Cl)cc4)CC3)nc(OCC(F)(F)F)n2)cc1` [Compound 3588], the 50% effective concentration (EC50) under setting [1] was 0.01 to 10 nM.
